Experimental data as given in patent publication US9422277B2, “Tricyclic substituted thiadiazine dioxide compounds as BACE inhibitors, compositions and their use” (Merck Sharp & Dohme Corp., priority 2012, dated 2016).

How the values were obtained:
human P-glycoprotein = human P-glycoprotein (Homo sapiens (Human), UniProt P08183); assay: Efflux by human P-glycoprotein (Pgp Mdr1 efflux ratio); type: in vitro ADME
[1] = biological target: purified human autoBACE-2 (Homo sapiens (Human), UniProt Q9Y5Z0); assay: BACE-2 Assay (BACE-HTRF assay); type: biochemical; details: Ki calculated from IC50 using the Cheng-Prusoff equation; read-out: BACE2 Ki
Description: Inhibitor IC50s at purified human autoBACE-2 are determined in a time-resolved endpoint proteolysis assay that measures hydrolysis of the QSY7-[…]-Eu-amide FRET peptide substrate (BACE-HTRF assay). BACE-mediated hydrolysis of this peptide results in an increase in relative fluorescence (RFU) at 620 nm after excitation with 320 nm light Inhibitor compounds, prepared at 3× the desired final concentration in 1×BACE assay buffer (20 mM sodium acetate pH 5.0, 10% glycerol, 0.1% Brij-35) supplemented with 7.5% DMSO are pre-incubated with an equal volume of autoBACE-2 enzyme diluted in 1×BACE assay buffer (final enzyme concentration 1 nM) in black 384-well NUNC plates for 30 minutes at 30° C. […] DMSO is present at 5% final concentration in the assay. Following laser excitation of sample wells at 320 nm, the fluorescence signal at 620 nm is collected for 400 ms following a 50 μs delay on a RUBYstar HTRF plate reader (BMG Labtechnologies). Raw RFU data is normalized to maximum (1.0 nM BACE/DMSO) and minimum (no enzyme/DMSO) RFU values. IC50s are determined by nonlinear regression analysis (sigmoidal dose response, variable slope) of percent inhibition data with minimum and maximum values set to 0 and 100 percent respectively. Similar IC50s are obtained when using raw RFU data. The Ki values are calculated from the IC50 using the Cheng-Prusoff equation.

[2] = biological target: soluble human BACE1 catalytic domain (Homo sapiens (Human), UniProt P56817); assay: BACE1 HTRF FRET Assay; type: biochemical; details: Ki calculated from IC50 using the Cheng-Prusoff equation
Description: A homogeneous time-resolved FRET assay can be used to determine IC50 values for inhibitors of the soluble human BACE1 catalytic domain. This assay monitors the increase of 620 nm fluorescence that resulted from BACE1 cleavage of an APPswedish APP^swe mutant peptide FRET substrate (QSY7-[…]-Europium-amide). This substrate contains an N-terminal QSY7 moiety that serves as a quencher of the C-terminal Europium fluorophore (620 nm Em). In the absence of enzyme activity, 620 nm fluorescence is low in the assay and increased linearly over 3 hours in the presence of uninhibited BACE1 enzyme Inhibition of BACE1 cleavage of the QSY7-APP^swe-Eu substrate by inhibitors is manifested as a suppression of 620 nm fluorescence.
Reactions are initiated by addition of 10 μl of 600 nM QSY7-APP^swe-Eu substrate (200 nM final) to give a final reaction volume of 30 μl in a 384 well Nunc HTRF plate. The reactions are incubated at 30° C. for 1.5 hours. The 620 nm fluorescence is then read on a Rubystar HTRF plate reader (BMG Labtechnologies) using a 50 millisecond delay followed by a 400 millisecond acquisition time window Inhibitor IC50 values are derived from non-linear regression analysis of concentration response curves.

Sequence of purified human autoBACE-2 (Q9Y5Z0 63-473 limits assumed): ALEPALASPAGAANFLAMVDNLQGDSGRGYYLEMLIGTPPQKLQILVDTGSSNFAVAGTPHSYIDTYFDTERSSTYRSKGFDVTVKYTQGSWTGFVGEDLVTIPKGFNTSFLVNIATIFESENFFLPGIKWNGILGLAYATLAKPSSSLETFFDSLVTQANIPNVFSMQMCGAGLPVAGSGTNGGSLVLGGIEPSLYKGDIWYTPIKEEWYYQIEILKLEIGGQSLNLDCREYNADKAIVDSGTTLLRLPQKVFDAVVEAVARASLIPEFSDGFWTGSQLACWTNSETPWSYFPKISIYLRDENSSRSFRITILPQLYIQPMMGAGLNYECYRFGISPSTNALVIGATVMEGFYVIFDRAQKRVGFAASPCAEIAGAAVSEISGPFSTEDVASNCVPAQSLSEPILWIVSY
Sequence of soluble human BACE1 catalytic domain (P56817 75-416): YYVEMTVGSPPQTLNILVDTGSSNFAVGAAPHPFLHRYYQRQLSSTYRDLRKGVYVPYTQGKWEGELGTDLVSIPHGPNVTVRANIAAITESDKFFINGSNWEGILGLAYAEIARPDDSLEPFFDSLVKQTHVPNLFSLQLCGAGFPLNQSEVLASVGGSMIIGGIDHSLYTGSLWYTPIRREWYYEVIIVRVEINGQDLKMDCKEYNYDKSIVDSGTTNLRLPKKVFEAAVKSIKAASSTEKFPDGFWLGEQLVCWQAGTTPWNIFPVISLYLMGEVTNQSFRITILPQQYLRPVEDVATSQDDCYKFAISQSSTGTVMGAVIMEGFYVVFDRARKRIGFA
Sequence of human P-glycoprotein (P08183 whole entry): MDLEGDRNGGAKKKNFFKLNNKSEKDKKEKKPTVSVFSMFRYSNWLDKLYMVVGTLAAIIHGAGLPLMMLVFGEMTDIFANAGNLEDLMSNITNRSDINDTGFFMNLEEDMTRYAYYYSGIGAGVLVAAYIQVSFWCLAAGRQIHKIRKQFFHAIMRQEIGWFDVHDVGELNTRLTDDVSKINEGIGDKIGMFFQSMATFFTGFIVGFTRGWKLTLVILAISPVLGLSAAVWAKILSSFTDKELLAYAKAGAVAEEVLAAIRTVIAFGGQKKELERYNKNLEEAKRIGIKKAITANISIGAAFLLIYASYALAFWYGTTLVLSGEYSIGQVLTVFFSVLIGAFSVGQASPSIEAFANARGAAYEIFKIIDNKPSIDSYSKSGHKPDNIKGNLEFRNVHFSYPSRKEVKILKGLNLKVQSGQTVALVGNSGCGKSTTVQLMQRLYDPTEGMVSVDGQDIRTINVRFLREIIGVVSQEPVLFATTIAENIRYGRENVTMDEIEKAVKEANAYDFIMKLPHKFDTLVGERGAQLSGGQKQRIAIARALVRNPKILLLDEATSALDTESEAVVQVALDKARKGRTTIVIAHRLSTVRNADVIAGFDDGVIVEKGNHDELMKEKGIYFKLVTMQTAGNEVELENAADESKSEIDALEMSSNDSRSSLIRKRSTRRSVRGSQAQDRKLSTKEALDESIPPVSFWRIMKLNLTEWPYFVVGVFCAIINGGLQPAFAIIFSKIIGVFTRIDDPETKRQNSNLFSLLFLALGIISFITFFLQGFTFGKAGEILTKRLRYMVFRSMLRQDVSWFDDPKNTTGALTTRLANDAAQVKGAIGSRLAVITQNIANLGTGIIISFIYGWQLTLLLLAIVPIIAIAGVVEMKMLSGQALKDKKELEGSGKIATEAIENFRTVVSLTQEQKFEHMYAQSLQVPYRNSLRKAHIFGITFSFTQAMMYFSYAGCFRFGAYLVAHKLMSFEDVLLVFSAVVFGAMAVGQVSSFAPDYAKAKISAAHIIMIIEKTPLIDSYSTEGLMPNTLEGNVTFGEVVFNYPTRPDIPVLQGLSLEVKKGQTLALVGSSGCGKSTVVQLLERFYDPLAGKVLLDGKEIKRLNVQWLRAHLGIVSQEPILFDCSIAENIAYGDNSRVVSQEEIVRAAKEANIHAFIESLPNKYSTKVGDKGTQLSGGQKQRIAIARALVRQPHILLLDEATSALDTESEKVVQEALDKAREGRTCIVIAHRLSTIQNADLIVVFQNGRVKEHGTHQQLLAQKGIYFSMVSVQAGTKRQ

Row | SMILES | Pgp Mdr1 ER (human P-glycoprotein) | Ki [1] | Ki [2]
1 | CN1C(=N)N[C@](C)(c2sc(-c3ncc(-c4ccccn4)[nH]3)cc2Cl)CS1(=O)=O [Example 3] |  | 0.0879 µM | 0.47 µM
2 | CN1C(=N)N[C@](C)(c2sc(-c3nnc(-c4cocn4)o3)cc2Cl)CS1(=O)=O [Example 42] |  | 0.143 µM | 0.925 µM
3 | CN1C(=N)N[C@](C)(c2sc(-c3cc(-c4ccccc4)on3)cc2Cl)CS1(=O)=O [Example 12] |  | 0.364 µM | 1.17 µM
4 | CN1C(=N)N[C@](C)(c2sc(-c3nnc(-c4ccn(C)n4)o3)cc2Cl)CS1(=O)=O [Example 46] |  | 0.13 µM | 1.14 µM
5 | CN1C(=N)N[C@](C)(c2sc(-c3nnc(-c4ccc(C5CCC(F)(F)C5)cc4)o3)cc2Cl)CS1(=O)=O (stereo partly drawn) [Example 67] |  | 1.87 µM | 1.11 µM
6 | CN1C(=N)N[C@](C)(c2cc(-c3nnc(-c4cocn4)o3)ccc2F)CS1(=O)=O [Example 54] |  | 1.69 µM | 7.55 µM
7 | CN1C(=N)N[C@](C)(c2sc(-c3nnc(-c4cscn4)o3)cc2Cl)CS1(=O)=O [Example 37] |  | 0.0691 µM | 0.662 µM
8 | CN1C(=N)N[C@](C)(c2cc(-c3cc(-c4ccccc4)on3)ccc2F)CS1(=O)=O [Example 15] |  | 0.0526 µM | 0.326 µM
9 | CN1C(=N)N[C@](C)(c2sc(-c3nnc(-c4ccon4)o3)cc2Cl)CS1(=O)=O [Example 44] |  | 0.157 µM | 1.34 µM
10 | CN1C(=N)N[C@](C)(c2sc(-c3nnc(-c4cncs4)o3)cc2Cl)CS1(=O)=O [Example 33] |  | 0.347 µM | 0.863 µM
11 | CN1C(=N)N[C@](C)(c2sc(-c3nnc(C4CC4)o3)cc2Cl)CS1(=O)=O [Example 48] |  | 0.116 µM | 0.882 µM
12 | CN1C(=N)N[C@](C)(c2cc(-c3nnc(-c4cscn4)o3)ccc2F)CS1(=O)=O [Example 51] |  | 1.54 µM | 8.6 µM
13 | CN1C(=N)N[C@](C)(c2sc(-c3cnn(-c4ccccc4)c3)cc2Cl)CS1(=O)=O [Example 85] |  | 0.0279 µM | 0.265 µM
14 | CN1C(=N)N[C@](C)(c2sc(-c3nnc(-c4cnn5ccccc45)o3)cc2Cl)CS1(=O)=O [Example 35] |  | 0.45 µM | 2.37 µM
15 | CN1C(=N)N[C@](C)(c2cc(-c3nnc(C4Cc5ccccc5C4)o3)ccc2F)CS1(=O)=O [Example 52] |  | 2.68 µM | 7.69 µM
16 | CN1C(=N)N[C@](C)(c2sc(-c3nnc(-c4ccccn4)o3)cc2Cl)CS1(=O)=O [Example 21] |  | 0.0584 µM | 0.555 µM
17 | CN1C(=N)N[C@](C)(c2sc(-c3nnc(-c4ncccn4)o3)cc2Cl)CS1(=O)=O [Example 36] |  | 0.104 µM | 0.778 µM
18 | CN1C(=N)N[C@](C)(c2cc(-c3nnc(-c4ncco4)o3)ccc2F)CS1(=O)=O [Example 53] |  | 0.186 µM | 3.42 µM
19 | CN1C(=N)N[C@](C)(c2sc(-c3ccc(C4=NCCO4)[nH]3)cc2Cl)CS1(=O)=O [Example 6] |  | 0.069 µM | 0.27 µM

Other lines, results leading:

Row | Pgp Mdr1 ER (human P-glycoprotein) | Ki [1] | Ki [2] | SMILES
20 | 1.3 | 0.00776 µM | 0.106 µM | CN1C(=N)N[C@](C)(c2sc(-c3nnc(-c4ccccc4)o3)cc2Cl)CS1(=O)=O [Example 20]
21 | 1.4 | 0.013 µM | 0.0655 µM | CN1C(=N)N[C@](C)(c2sc(-c3nnc(-c4ccc(F)cc4)o3)cc2Cl)CS1(=O)=O [Example 22]
22 | 1.0 | 0.0346 µM | 0.0386 µM | COc1ccc(-c2nnc(-c3cc(Cl)c([C@]4(C)CS(=O)(=O)N(C)C(=N)N4)s3)o2)cc1 [Example 17]
23 | 1.0 | 0.0136 µM | 0.0319 µM | CN1C(=N)N[C@](C)(c2sc(-c3nnc(-c4ccc(Cl)cc4)o3)cc2F)CS1(=O)=O [Example 19]
24 | 1.1 | 0.0138 µM | 0.0288 µM | CN1C(=N)N[C@](C)(c2sc(-c3nnc(-c4ccc(Cl)cc4)o3)cc2Cl)CS1(=O)=O [Example 16]
25 |  | 0.0449 µM | 0.0346 µM | CN1C(=N)N[C@](C)(c2sc(-c3nnc(-c4ccc(C#N)cc4)o3)cc2Cl)CS1(=O)=O [Example 23]
26 |  | 0.132 µM | 0.0516 µM | CN1C(=N)N[C@](C)(c2sc(-c3nnc(-c4ccc(OC(F)F)cc4)o3)cc2Cl)CS1(=O)=O [Example 79]
27 |  | 2.99 µM | 5.36 µM | CN1C(=N)N[C@](C)(c2sc(-c3nnc(-c4ccc(N5CCCCC5)cc4)o3)cc2Cl)CS1(=O)=O [Example 68]
28 |  | 1.24 µM | 1.21 µM | CN1C(=N)N[C@](C)(c2sc(-c3nnc(-c4cccc(C#N)c4)o3)cc2Cl)CS1(=O)=O [Example 31]
29 |  | 0.313 µM | 0.0842 µM | CCCOc1ccc(-c2nnc(-c3cc(Cl)c([C@]4(C)CS(=O)(=O)N(C)C(=N)N4)s3)o2)cc1 [Example 62]
30 |  | 0.527 µM | 0.227 µM | CN1C(=N)N[C@](C)(c2sc(-c3nnc(-c4ccc(OCc5ccccc5)cc4)o3)cc2Cl)CS1(=O)=O [Example 63]
31 |  | 0.671 µM | 0.138 µM | COC(=O)Cc1ccc(-c2nnc(-c3cc(Cl)c([C@]4(C)CS(=O)(=O)N(C)C(=N)N4)s3)o2)cc1 [Example 80]
32 | 0.7 | 0.155 µM | 0.0589 µM | CN1C(=N)N[C@](C)(c2sc(-c3nnc(-c4ccc(C(F)(F)F)cc4)o3)cc2Cl)CS1(=O)=O [Example 18]
33 |  | 0.181 µM | 0.155 µM | CN1C(=N)N[C@](C)(c2sc(-c3nnc(-c4ccc(-n5cccn5)cc4)o3)cc2Cl)CS1(=O)=O [Example 71]
